Where a name gives a salt, the structure may show the parent alone.
What was measured:
[1] = system: Human primary CD3+ T cells; assay: TNFα secretion by CD3+ T cells (AlphaLISA); conditions: 100 μM ATP; for Reversal of inhibition of T cells in the presence of ATP, A2A receptor antagonist in combination with dipyridamole: FIG. 5A-C (viability, CD8+ proliferation, TNFα), with dipyridamole 1 μM, Compound 8a 300 nM, NIR178 5 μM, CPI-444 5 μM, AZD4635 1 μM, AB928 1 μM
Method: Human primary CD3+ T cells were stimulated with antiCD3/antiCD28-coated microbeads, and treated with 100 μM ATP or control medium. Viability of CD3+ T cells (FIG. 5A) and proliferation of CD8+ T cells (FIG. 5B) were analysed by flow cytometry after a 3 days incubation period. TNFα secretion in the supernatant was analysed by AlphaLISA. Grey shaded bars show A2AR antagonist treated wells, whilst clear bars denote concentration-matched DMSO treated wells. […] Data shown are representative of data obtained in three healthy individuals in 4 independent experiments.
Venous blood from healthy volunteers, all of whom signed an informed consent approved by the Ethics Committee (FOR-UIC-BV-050-01-01 ICF_HBS_HD Version 5.0), was obtained via Unité d'Investigation Clinique (Centre Hospitalier Universitaire de Tivoli, La Louviere, Belgium). Mononuclear cells were collected by density gradient centrifugation, using SepMate-50 tubes and Lymphoprep according to the manufacturer's instructions. CD3+ T cells were isolated by immunomagnetic negative selection, using the EasySep Human T Cell Isolation Kit as per manufacturer's instructions. CD3+ T cells were stored in heat inactivated FBS and 10% DMSO in liquid nitrogen.
Human purified CD3+ T cells were thawed and washed twice with RPMI1640 medium, UltraGlutamine, supplemented with 1× non-essential amino acids (Lonza), and 1 mM Sodium Pyruvate (Gibco) (complete media), containing 10% hiFBS. After the final wash, cells were resuspended in PBS containing 10% FBS, and labeled using 3 μM CFSE during 5 min at room temperature, followed by two wash steps in complete media. After the last wash, cells were suspended at 1.6×10^6 cells/mL in X-Vivol5 medium. 50 μL of cell suspension (8×10^4 T cells) was added to wells of sterile round-bottom 96-well plates. Cells were activated by adding 50 μL of anti-CD3 anti-CD28 coated microbeads (Dynabeads human T-activator CD3/CD28), suspended in X-Vivo15 medium, at a ratio of one microbead per two cells. […] The final concentration of DMSO in the assay was 0.05%, and the final assay volume was 200 μL. Experiments were performed in biological duplicate, and DMSO control was added in quadruplicate. The cells were placed in a 37° C. humidified tissue culture incubator with 5% CO2 for 72 hours. After 72 hours, the cells were pelleted by centrifugation at 1600 rpm for 5 minutes, and supernatants were transferred to V-bottom 96-well plates for cytokine quantification. Cell pellets were resuspended in FACS buffer (see below) for flow cytometry analysis.
Supernatants were centrifuged at 4000 rpm for 10 minutes, and IL-2 was quantified using the IL-2 (human) AlphaLISA Biotin-Free Detection Kit, and TNFα was quantified using the AlphaLISA Human TNFα Biotin-Free Detection Kit, according to the manufacturer's instructions.

[2] = system: Human primary CD3+ T cells; assay: Viability of stimulated human primary CD3+ T cells (flow cytometry, fixable viability dye); conditions: 3 days; for T cell viability, effect of adenosine or ATP: anti-CD3/CD28-stimulated CD3+ T cells; for T cell viability, effect of adenosine or ATP / Restoration of adenosine- and ATP-mediated suppression of T cell viability: 25 μM adenosine or 200 μM ATP; for Restoration of adenosine- and ATP-mediated suppression of T cell viability: single agent, Compound 8a at 300 nM
Method: Human primary CD3+ T cells were stimulated with antiCD3/antiCD28-coated microbeads, and treated with 25 μM adenosine (FIG. 2A) or 200 μM ATP (FIG. 2B). T cell viability was analysed by flow cytometry after a 3 days incubation period.
(§1) Human primary CD3+ T cells were stimulated with antiCD3/antiCD28-coated microbeads, and treated with 100 μM ATP or control medium. Viability of CD3+ T cells (FIG. 5A) and proliferation of CD8+ T cells (FIG. 5B) were analysed by flow cytometry after a 3 days incubation period.
PBMC and CD3+ T cell isolation. […] Mononuclear cells were collected by density gradient centrifugation, using SepMate-50 tubes and Lymphoprep according to the manufacturer's instructions. CD3+ T cells were isolated by immunomagnetic negative selection, using the EasySep Human T Cell Isolation Kit as per manufacturer's instructions. CD3+ T cells were stored in heat inactivated FBS and 10% DMSO in liquid nitrogen.
(§2) Human primary T cell culture. Human purified CD3+ T cells were thawed and washed twice with RPMI1640 medium, UltraGlutamine, supplemented with 1× non-essential amino acids (Lonza), and 1 mM Sodium Pyruvate (Gibco) (complete media), containing 10% hiFBS. After the final wash, cells were resuspended in PBS containing 10% FBS, and labeled using 3 μM CFSE during 5 min at room temperature, followed by two wash steps in complete media. After the last wash, cells were suspended at 1.6×10^6 cells/mL in X-Vivol5 medium. 50 μL of cell suspension (8×10^4 T cells) was added to wells of sterile round-bottom 96-well plates. Cells were activated by adding 50 μL of anti-CD3 anti-CD28 coated microbeads (Dynabeads human T-activator CD3/CD28), suspended in X-Vivo15 medium, at a ratio of one microbead per two cells. […] The final concentration of DMSO in the assay was 0.05%, and the final assay volume was 200 μL. Experiments were performed in biological duplicate, and DMSO control was added in quadruplicate. The cells were placed in a 37° C. humidified tissue culture incubator with 5% CO2 for 72 hours. After 72 hours, the cells were pelleted by centrifugation at 1600 rpm for 5 minutes, and supernatants were transferred to V-bottom 96-well plates for cytokine quantification. Cell pellets were resuspended in FACS buffer (see below) for flow cytometry analysis.
(§3) Flow cytometry. Cells were washed with FACS buffer (PBS containing 2 mM EDTA and 0.1% BSA) and stained with surface marker antibodies and viability dye for 20 min on ice. Cells were washed twice with FACS buffer and data acquired using an LSRFortessa (BD biosciences). Analysis was performed using FlowJo software (Treestar).

[3] = system: Human primary CD3+ T cells; assay: Proliferation of CD4+ and CD8+ T cells (CFSE dilution, flow cytometry); conditions: 3 days; for T cell proliferation, effect of adenosine or ATP: anti-CD3/CD28-stimulated CD3+ T cells; for T cell proliferation, effect of adenosine or ATP / Restoration of adenosine- and ATP-mediated suppression of T cell proliferation: 25 μM adenosine or 200 μM ATP; for Restoration of adenosine- and ATP-mediated suppression of T cell proliferation: single agent, Compound 8a at 300 nM
Method: Human primary CD3+ T cells were stimulated with antiCD3/antiCD28-coated microbeads, and treated with 25 μM adenosine (FIGS. 3A and 3C) or 200 μM ATP (FIGS. 3B and 3D). Proliferation of CD4+(FIGS. 3A and 3B) and CD8+(FIGS. 3C and 3D) T cells was analysed by flow cytometry after a 3 days incubation period.
as §1
(§4) PBMC and CD3+ T cell isolation. Venous blood from healthy volunteers, all of whom signed an informed consent approved by the Ethics Committee (FOR-UIC-BV-050-01-01 ICF_HBS_HD Version 5.0), was obtained via Unité d'Investigation Clinique (Centre Hospitalier Universitaire de Tivoli, La Louviere, Belgium). Mononuclear cells were collected by density gradient centrifugation, using SepMate-50 tubes and Lymphoprep according to the manufacturer's instructions. CD3+ T cells were isolated by immunomagnetic negative selection, using the EasySep Human T Cell Isolation Kit as per manufacturer's instructions. CD3+ T cells were stored in heat inactivated FBS and 10% DMSO in liquid nitrogen.
Human primary T cell culture. Human purified CD3+ T cells were thawed and washed twice with RPMI1640 medium, UltraGlutamine, supplemented with 1× non-essential amino acids (Lonza), and 1 mM Sodium Pyruvate (Gibco) (complete media), containing 10% hiFBS. After the final wash, cells were resuspended in PBS containing 10% FBS, and labeled using 3 μM CFSE during 5 min at room temperature, followed by two wash steps in complete media. After the last wash, cells were suspended at 1.6×10^6 cells/mL in X-Vivol5 medium. 50 μL of cell suspension (8×10^4 T cells) was added to wells of sterile round-bottom 96-well plates. Cells were activated by adding 50 μL of anti-CD3 anti-CD28 coated microbeads (Dynabeads human T-activator CD3/CD28), suspended in X-Vivo15 medium, at a ratio of one microbead per two cells. […] The final concentration of DMSO in the assay was 0.05%, and the final assay volume was 200 μL. Experiments were performed in biological duplicate, and DMSO control was added in quadruplicate. The cells were placed in a 37° C. humidified tissue culture incubator with 5% CO2 for 72 hours. […] Cell pellets were resuspended in FACS buffer (see below) for flow cytometry analysis.
as §3

[4] = system: Human primary CD3+ T cells; conditions: 25 μM adenosine or 200 μM ATP, 3 days; for T cell cytokine secretion (IL-2), effect of adenosine or ATP: anti-CD3/CD28-stimulated CD3+ T cells; for Restoration of adenosine- and ATP-mediated suppression of IL-2 secretion: single agent, Compound 8a at 300 nM
Method: CD3+ T cells were stimulated with antiCD3/antiCD28-coated microbeads, and treated with 25 μM adenosine (FIG. 4A) or 200 μM ATP (FIG. 4B). IL-2 secretion in the supernatant was analysed by AlphaLISA after a 3 days incubation period. […] Representative data for 1 healthy donor are shown.
as §4, §2
Cytokine quantification. Supernatants were centrifuged at 4000 rpm for 10 minutes, and IL-2 was quantified using the IL-2 (human) AlphaLISA Biotin-Free Detection Kit, and TNFα was quantified using the AlphaLISA Human TNFα Biotin-Free Detection Kit, according to the manufacturer's instructions.

MCA205 tumor = assay: Mouse syngeneic MCA205 fibrosarcoma tumor model; format: in vivo; conditions: C57BL/6 mice; 20 mg/kg p.o. BID for 22 days; p=0.0043
Source text: FIG. 7A is a graph representing the median tumor volume over time after subcutaneous inoculation of tumor cells.
MCA205 tumor cells were inoculated subcutaneously into the right flank of C57BL/6 mice. When tumors reached an average size of about […], mice were randomly allocated into groups.

[5] = system: LPS induced TNFalpha production; assay: In vivo LPS induced TNFalpha production in mouse (serum ELISA); conditions: BALB/c mice; 20 mg/kg p.o. 1 h before LPS; p=0.008
Method: BALB/c mice were pretreated for 1 h before LPS (1 mg/kg I.V) injection with NBMPR (20 mg/kg p.o.) or vehicle. […] One hour after LPS treatment, blood serum was collected from the mice. TNFalpha levels were determined by ELISA (n=5).
After 30 minutes, mice were treated with NBMPR p.o. at 20 mg/kg. 60 minutes later, mice were treated with LPS and blood was drawn for TNFalpha measurement in the serum, by ELISA.

Cc1c(C#N)cccc1-c1cc(-c2cn(Cc3cccc(C(C)(C)O)n3)nn2)nc(N)n1 [AB928, 3-(2-amino-6-(1-((6-(2-hydroxypropan-2-yl)pyridin-2-yl)methyl)-1H-1,2,3-triazol-4-yl)pyrimidin-4-yl)-2-methylbenzonitrile]
Reversal of inhibition of T cells in the presence of ATP, A2A receptor antagonist in combination with dipyridamole [1]: reversed

Nc1ncnc2c1ncn2[C@@H]1O[C@H](COP(=O)([O-])OP(=O)([O-])OP(=O)(O)O)[C@@H](O)[C@H]1O.O.[Na+].[Na+] [ATP, Adenosine 5′-triphosphate disodium salt hydrate]
Production of TNFα, effect of ATP ([1]; 3 days): significantly inhibited
T cell viability, effect of ATP ([2]; 100 μM ATP): reduced
T cell viability, effect of adenosine or ATP [2]: strongly reduced
CD8+ T cell proliferation, effect of ATP ([3]; 100 μM ATP): significantly inhibited
T cell proliferation, effect of adenosine or ATP [3]: profoundly suppressed
T cell cytokine secretion (IL-2), effect of adenosine or ATP [4]: profoundly suppressed

Cc1cc(-c2nnc(N)nc2-c2ccc(F)cc2)cc(Cl)n1 [AZD4635, 6-(2-chloro-6-methylpyridin-4-yl)-5-(4-fluorophenyl)-1,2,4-triazin-3-amine]
Reversal of inhibition of T cells in the presence of ATP, A2A receptor antagonist in combination with dipyridamole [1]: reversed

Nc1ncnc2c1ncn2[C@@H]1O[C@H](CO)[C@@H](O)[C@H]1O [Adenosine]
T cell viability, effect of adenosine or ATP [2]: strongly reduced
T cell proliferation, effect of adenosine or ATP [3]: profoundly suppressed
T cell cytokine secretion (IL-2), effect of adenosine or ATP [4]: profoundly suppressed

Cc1ccc(-c2nc(N)nc3c2nnn3Cc2cccc(CO[C@H]3CCOC3)n2)o1 [CPI-444, (S)-7-(5-methylfuran-2-yl)-3-((6-(([tetrahydrofuran-3-yl]oxy)methyl)pyridin-2-yl)methyl)-3H-[1,2,3]triazolo[4,5-d]pyrimidin-5-amine]
Reversal of inhibition of T cells in the presence of ATP, A2A receptor antagonist in combination with dipyridamole [1]: reversed

O=[N+]([O-])c1ccc(CSc2ncnc3c2ncn3[C@@H]2O[C@H](CO)[C@@H](O)[C@H]2O)cc1 [NBMPR, 6-S-[(4-Nitrophenyl)methyl]-6-thioinosine]
Tumor growth compared to Vehicle, NBMPR single agent (MCA205 tumor): significant delay in tumor growth
Suppression of TNFalpha production after LPS, NBMPR on its own [5]: ~2 fold

Nc1nc(-n2cccn2)nc(-n2cccn2)c1Br [NIR178, 5-bromo-2,6-di-(1H-pyrazol-1-yl)pyrimidin-4-amine]
Reversal of inhibition of T cells in the presence of ATP, A2A receptor antagonist in combination with dipyridamole [1]: reversed

COc1cc(C(=O)OCCCN2CCCN(CCCOC(=O)c3cc(OC)c(OC)c(OC)c3)CC2)cc(OC)c1OC [dilazep hydrochloride]
Restoration of adenosine- and ATP-mediated suppression of T cell viability [2]: restored
Restoration of adenosine- and ATP-mediated suppression of T cell proliferation [3]: restored
Restoration of adenosine- and ATP-mediated suppression of IL-2 secretion [4]: none of the ENT inhibitors rescued

OCCN(CCO)c1nc(N2CCCCC2)c2nc(N(CCO)CCO)nc(N3CCCCC3)c2n1 [dipyridamole]
Reversal of ATP-reduced T cell viability ([2]; 100 μM ATP, dipyridamole 1 μM): completely reversed
Restoration of adenosine- and ATP-mediated suppression of T cell viability [2]: restored
Reversal of ATP inhibition of CD8+ T cell proliferation ([3]; 100 μM ATP, dipyridamole 1 μM): completely reversed
Restoration of adenosine- and ATP-mediated suppression of T cell proliferation [3]: restored
Restoration of adenosine- and ATP-mediated suppression of IL-2 secretion [4]: none of the ENT inhibitors rescued

CCCSc1nc(N[C@@H]2C[C@H]2c2ccc(F)c(F)c2)c2nnn([C@@H]3C[C@H](OCCO)[C@@H](O)[C@H]3O)c2n1 [ticagrelor]
Restoration of adenosine- and ATP-mediated suppression of T cell viability [2]: restored
Restoration of adenosine- and ATP-mediated suppression of T cell proliferation [3]: restored
Restoration of adenosine- and ATP-mediated suppression of IL-2 secretion [4]: none of the ENT inhibitors rescued

— US20210338672A1, “USE OF AN INHIBITOR OF AN ENT FAMILY TRANSPORTER IN THE TREATMENT OF CANCER AND COMBINATION THEREOF WITH AN ADENOSINE RECEPTOR ANTAGONIST” (iTeos Belgium SA, priority 2018, published 2021)
